Patent US20170313674A1, “BENZYLHYDROXIDE DERIVATIVES, PREPARATION THEREOF AND THERAPEUTIC USE THEREOF” (SANOFI, priority 2014, published 2017)
Like-named read-outs stand apart in the source and are kept apart here.

What was measured:
HIF-1a = test: Western blot model: HIF1-a stabilization in Hep3b cells under hypoxia; format: cell-based; details: hypoxia 1% O2, 6 hours; for Western Blot (range of decrease of HIF1-a stabilization): class symbol
Method: Since it was sought to determine the efficacy of the compounds to inhibit HIF1a stabilization under hypoxia, the compounds according to the invention underwent biochemical studies in order to determine their capacity to decrease HIF stabilization in Hep3b cells under hypoxia (western blot model).
Hep3B cells are seeded at a rate of 300000 cells per well in 6-wells culture plate in 2 ml of MEM supplemented with glutamin (2 mM) and 10% FCS (foetal calf serum) and incubated at 37° C. in the presence of 5% CO2. The next day, the cells are placed in contact with the compound and an incubation under hypoxia at 1% O2 is carried out at 37° C. in 95% humidity and 5% CO2 in a sealed anaerobic workstation (Hypoxystation H35-Don Whitley—AES Chemunex) during 6 hours.
Cells were washed (PBS) and lysed in SDS sample buffer. Proteins (25 μg) were separated on 4-12% Bis-Tris gels and transferred onto polyvinylidene difluoride membranes (Millipore). Membranes were blotted with a mouse monoclonal antibody to HIF-1a (BD transduction) and a mouse monoclonal anti-βactin (Sigma). Immunoreactive bands were detected with a horse radish peroxydase (HRP) anti-mouse antibody (Sigma) by enhanced chemiluminescence (Promega).
The inhibitory activity of the compounds for their capacity to decrease HIF1-a stabilization in Hep3b under hypoxia is expressed as range of percentage relative to control with: […]

[1] = system: mitochondrial ATP production on non-small cell lung carcinoma cell lines NCI-H460; test: Mitochondrial ATP analysis (Cell Titer Glo) in NCI-H460 cells; format: cell-based; details: 1-hour incubation, with sodium iodoacetate (100 μM), concentration inhibiting 50% of mitochondrial ATP production, read-out: IC50 (mito ATP)
In short: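 NCI-H460 cells (1,000/well) treated 24 h after plating for 1 h with compound dose series alone or with 100 μM sodium iodoacetate; oligomycin A (10 μg/ml) and FCCP (30 μM) as controls; Cell Titer Glo luminescence. Mitochondrial ATP = ATP under iodoacetate minus ATP under iodoacetate+oligomycin; IC50 (M).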

SMILES | Western Blot (decrease of HIF1-a stabilization, percentage relative to control) (HIF-1a) | Western Blot (range of decrease of HIF1-a stabilization) (HIF-1a) | IC50 [1] | IC50 ([1]; Homo sapiens, NCI-H460, 1 h)
COc1ccc(C(O)C(C)(C)Oc2ccc(-c3c[nH]c(-c4ccc(OC(C)(C)C(O)c5ccc(OC)c(OC)c5)cc4)n3)cc2)cc1OC (single isomer, unassigned) [Compound I-56, 1-(3,4-dimethoxyphenyl)-2-[4-[2-[4-[2-(3,4-dimethoxyphenyl)-2-hydroxy-1,1-dimethyl-ethoxy]phenyl]-1H-imidazol-4-yl]phenoxy]-2-methyl-propan-1-ol] | 75% | *** (*** represents a decrease of HIF-a stabilization higher than 70%) | 0.76 µM | 
COc1ccc(C(O)COc2ccc(-c3csc(-c4ccc(OCC(O)c5ccc(OC)c(OC)c5)cc4)n3)cc2)cc1OC (single isomer, unassigned) [Compound I-61, 1-(3,4-dimethoxyphenyl)-2-[4-[2-[4-[2-(3,4-dimethoxyphenyl)-2-hydroxy-ethoxy]phenyl]thiazol-4-yl]phenoxy]ethanol] | 46% | * (* represents a decrease of HIF-a stabilization between 30 to 50%) | 0.326 µM | 
COc1ccc(C(O)COc2ccc(-c3csc(-c4ccc(OCC(O)c5ccc(OC)c(OC)c5)cc4)n3)cc2)cc1OC (single isomer, unassigned) [Compound I-62, 1-(3,4-dimethoxyphenyl)-2-[4-[2-[4-[2-(3,4-dimethoxyphenyl)-2-hydroxy-ethoxy]phenyl]thiazol-4-yl]phenoxy]ethanol] | 43% | * (* represents a decrease of HIF-a stabilization between 30 to 50%) | 0.492 µM | 
COc1ccc(C(O)COc2ccc(-c3csc(-c4ccc(OC(C)(C)C(O)c5ccc(OC)c(OC)c5)cc4)n3)cc2)cc1OC (single isomer, unassigned) [Compound I-65, 1-(3,4-dimethoxyphenyl)-2-[4-[4-[4-[2-(3,4-dimethoxyphenyl)-2-hydroxy-ethoxy]phenyl]thiazol-2-yl]phenoxy]-2-methyl-propan-1-ol] | 41% | * (* represents a decrease of HIF-a stabilization between 30 to 50%) |  | 0.0238 µM
COc1ccc(C(O)COc2ccc(-c3csc(-c4ccc(OC(C)(C)C(O)c5ccc(OC)c(OC)c5)cc4)n3)cc2)cc1OC (single isomer, unassigned) [Compound I-66, 1-(3,4-dimethoxyphenyl)-2-[4-[4-[4-[2-(3,4-dimethoxyphenyl)-2-hydroxy-ethoxy]phenyl]thiazol-2-yl]phenoxy]-2-methyl-propan-1-ol] | 54% | ** (** represents a decrease of HIF-a stabilization between 50 to 70%) | 0.0265 µM | 
COc1ccc(C(O)COc2ccc(-c3nc(-c4ccc(OCC(O)c5ccc(OC)c(OC)c5)cc4)c(C)o3)cc2)cc1OC (stereo not drawn) [Compound I-1, 1-(3,4-dimethoxyphenyl)-2-[4-[2-[4-[2-(3,4-dimethoxyphenyl)-2-hydroxy-ethoxy]phenyl]-5-methyl-oxazol-4-yl]phenoxy]ethanol] | 48% | * (* represents a decrease of HIF-a stabilization between 30 to 50%) |  | 0.353 µM
COc1ccc(C(O)C(C)(C)Oc2ccc(-c3nc(-c4ccc(OC(C)(C)C(O)c5ccc(OC)c(OC)c5)cc4)c(C)o3)cc2)cc1OC (stereo not drawn) [Compound I-2, 1-(3,4-dimethoxyphenyl)-2-[4-[2-[4-[2-(3,4-dimethoxyphenyl)-2-hydroxy-1,1-dimethyl-ethoxy]phenyl]-5-methyl-oxazol-4-yl]phenoxy]-2-methyl-propan-1-ol] | 54% | ** (** represents a decrease of HIF-a stabilization between 50 to 70%) |  | 0.023 µM
COc1ccc(C(O)C(C)(C)Oc2ccc(-c3nc(-c4ccc(OC(C)(C)C(O)c5ccc(OC)c(OC)c5)cc4)c(C)s3)cc2)cc1OC (stereo not drawn) [Compound I-6, 1-(3,4-dimethoxyphenyl)-2-[4-[2-[4-[2-(3,4-dimethoxyphenyl)-2-hydroxy-1,1-dimethyl-ethoxy]phenyl]-5-methyl-thiazol-4-yl]phenoxy]-2-methyl-propan-1-ol] | 43% | * (* represents a decrease of HIF-a stabilization between 30 to 50%) |  | 0.0213 µM
COc1ccc(C(O)COc2ccc(-c3nc(-c4ccc(OCC(O)c5ccc(OC)c(OC)c5)cc4)c(C)s3)cc2)cc1OC (stereo not drawn) [Compound I-7, 1-(3,4-dimethoxyphenyl)-2-[4-[2-[4-[2-(3,4-dimethoxyphenyl)-2-hydroxy-ethoxy]phenyl]-5-methyl-thiazol-4-yl]phenoxy]ethanol] | 63% | ** (** represents a decrease of HIF-a stabilization between 50 to 70%) |  | 0.284 µM
COc1ccc(C(O)C(C)Oc2ccc(-c3coc(-c4ccc(OC(C)C(O)c5ccc(OC)c(OC)c5)cc4)n3)cc2)cc1OC (stereo not drawn) [Compound I-12, 1-(3,4-dimethoxyphenyl)-2-[4-[2-[4-[2-(3,4-dimethoxyphenyl)-2-hydroxy-1-methyl-ethoxy]phenyl]oxazol-4-yl]phenoxy]propan-1-ol] | 38% | * (* represents a decrease of HIF-a stabilization between 30 to 50%) |  | 0.128 µM
COc1ccc(C(O)C(C)(C)Oc2ccc(-c3csc(-c4ccc(OC(C)(C)C(O)c5ccc(OC)c(OC)c5)cc4)n3)cc2)cc1OC (stereo not drawn) [Compound I-26, 1-(3,4-dimethoxyphenyl)-2-[4-[2-[4-[2-(3,4-dimethoxyphenyl)-2-hydroxy-1,1-dimethyl-ethoxy]phenyl]thiazol-4-yl]phenoxy]-2-methyl-propan-1-ol] | 39% | * (* represents a decrease of HIF-a stabilization between 30 to 50%) |  | 0.00732 µM
COc1ccc(C(O)C(C)(C)Oc2ccc(-c3csc(-c4ccc(OC(C)(C)C(O)c5ccc(OC)c(OC)c5)cc4)n3)cc2)cc1OC (stereo not drawn) [Compound I-27, 1-(3,4-dimethoxyphenyl)-2-[4-[2-[4-[2-(3,4-dimethoxyphenyl)-2-hydroxy-1,1-dimethyl-ethoxy]phenyl]thiazol-4-yl]phenoxy]-2-methyl-propan-1-ol] | 40% | * (* represents a decrease of HIF-a stabilization between 30 to 50%) | 0.00368 µM | 
COc1ccc(C(O)C(C)(C)Oc2ccc(-c3csc(-c4ccc(OC(C)(C)C(O)c5ccc(OC)c(OC)c5)cc4)c3)cc2)cc1OC (stereo not drawn) [Compound I-34, 1-(3,4-dimethoxyphenyl)-2-[4-[5-[4-[2-(3,4-dimethoxyphenyl)-2-hydroxy-1,1-dimethyl-ethoxy]phenyl]-3-thienyl]phenoxy]-2-methyl-propan-1-ol] | 64% | ** (** represents a decrease of HIF-a stabilization between 50 to 70%) |  | 0.006 µM
